Measurements reported in ChEMBL document CHEMBL1131843, “Synthesis and biological evaluation of novel 1beta-methylcarbapenems having a new moiety at C-2” (Bioorg Med Chem Lett, 1999).
In brackets after ≈: the same amount, converted by molar mass.

Columns and labels:
[1] = tested on: Pseudomonas aeruginosa; assay: In vitro antibacterial activity against Pseudomonas aeruginosa 1771M; assay type: functional
[2] = tested on: Salmonella typhimurium; assay: In vitro antibacterial activity against Salmonella Typhimurium; assay type: functional, Salmonella enterica subsp. enterica serovar Typhimurium
[3] = tested on: Pseudomonas aeruginosa; assay: In vitro antibacterial activity against Pseudomonas aeruginosa 1592E; assay type: functional
[4] = tested on: Escherichia coli; assay: In vitro antibacterial activity against Escherichia coli 078; assay type: functional
[5] = tested on: Escherichia coli; assay: In vitro antibacterial activity against Escherichia coli 1507E; assay type: functional
[6] = tested on: Staphylococcus aureus; assay: In vitro antibacterial activity against Staphylococcus aureus SG 511; assay type: functional
[7] = tested on: Klebsiella aerogenes; assay: In vitro antibacterial activity against Klebsiella aerogenes 1522E; assay type: functional
[8] = tested on: Streptococcus pyogenes; assay: In vitro antibacterial activity against Streptococcus pyogenes 77A; assay type: functional
[9] = tested on: Enterobacter cloacae; assay: In vitro antibacterial activity against Enterobacter cloacae 1321E; assay type: functional
[10] = tested on: Enterococcus faecium; assay: In vitro antibacterial activity against Streptococcus faecium MD 8b; assay type: functional
[11] = target: T1, Dipeptidase 1 (Sus scrofa) (UniProt P22412); assay: Relative hydrolysis to meropenem by partially purified porcine renal Dehydropeptidase-1 was reported.; design: scale not given: the % may be the effect or the level left
T1 sequence (whole entry): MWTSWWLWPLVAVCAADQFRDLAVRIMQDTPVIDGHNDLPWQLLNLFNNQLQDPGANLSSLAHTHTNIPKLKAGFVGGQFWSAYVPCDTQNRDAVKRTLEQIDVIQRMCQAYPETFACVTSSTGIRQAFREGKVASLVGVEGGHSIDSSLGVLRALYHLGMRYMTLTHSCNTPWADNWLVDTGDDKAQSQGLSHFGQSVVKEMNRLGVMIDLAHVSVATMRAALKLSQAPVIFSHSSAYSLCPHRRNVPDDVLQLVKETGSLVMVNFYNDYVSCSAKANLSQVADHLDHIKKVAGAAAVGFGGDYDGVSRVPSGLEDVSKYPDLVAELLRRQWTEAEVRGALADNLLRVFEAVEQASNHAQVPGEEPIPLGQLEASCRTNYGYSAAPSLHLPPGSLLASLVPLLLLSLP

[12] = Half life was determined in mice at a single subcutaneous administration of 40 mg/kg (n=4); assay type: ADME, organism-based; design: dose 40 mg/kg, route subcutaneous; conditions: mouse, in vivo, sc
[13] = tested on: Mus musculus; assay: In vivo therapeutic efficacy was determined against Staphylococcus aureus Y-80-1953 by a single sc administration in mice; assay type: functional; conditions: read-out: PD50
[14] = tested on: Mus musculus; assay: In vivo therapeutic efficacy was determined against Pseudomonas aeruginosa 1771M by a single sc administration in mice; assay type: functional; conditions: read-out: PD50
[15] = tested on: Mus musculus; assay: In vivo therapeutic efficacy was determined against Streptococcus pyogenes 77A by a single sc administration in mice; assay type: functional; conditions: read-out: PD50
[16] = Maximum time was determined in mice at a single subcutaneous administration of 40 mg/kg (n=4); assay type: ADME, organism-based; design: dose 40 mg/kg, route subcutaneous; conditions: mouse, in vivo, sc
[17] = Area under curve (AUC) was determined in mice at a single subcutaneous administration of 40 mg/kg (n=4); assay type: ADME, organism-based; design: dose 40 mg/kg, route subcutaneous; conditions: mouse, in vivo, sc
[18] = tested on: Mus musculus; assay: In vivo therapeutic efficacy was determined against Escherichia coli 078 by a single sc administration in mice; assay type: functional; conditions: read-out: PD50
[19] = Maximum plasma concentration was determined in mice at a single subcutaneous administration of 40 mg/kg (n=4); assay type: ADME, organism-based; design: dose 40 mg/kg, route subcutaneous; conditions: mouse, sc
[20] = Pseudomonas aeruginosa, read-out: MIC
[21] = Salmonella enterica, read-out: MIC
[22] = Escherichia coli, read-out: MIC
[23] = Staphylococcus aureus, read-out: MIC
[24] = Klebsiella aerogenes, read-out: MIC
[25] = Streptococcus pyogenes, read-out: MIC
[26] = Enterobacter cloacae, read-out: MIC
[27] = Enterococcus faecium, read-out: MIC

| Compound | MIC [1, 20] [µg/mL] | MIC [2, 21] [µg/mL] | MIC [3, 20] [µg/mL] | MIC [4, 22] [µg/mL] | MIC [5] [µg/mL] | MIC [6, 23] [µg/mL] | MIC [7, 24] [µg/mL] | MIC [8, 25] [µg/mL] | MIC [9, 26] [µg/mL] | MIC [10, 27] [µg/mL] | Stability [11] [%] | further results |
| --- | --- | --- | --- | --- | --- | --- | --- | --- | --- | --- | --- | --- |
| C[C@@H](O)[C@H]1C(=O)N2C(C(=O)O)=C(S[C@H]3CN[C@H](C(=O)N4C[C@@H](O)[C@H](O)C4)C3)[C@H](C)[C@H]12 | 0.391 (≈ 0.886 µM) | 0.391 (≈ 0.886 µM) | 100 (≈ 226 µM) | 0.098 (≈ 0.222 µM) | 0.195 (≈ 0.442 µM) | 0.195 (≈ 0.442 µM) | 0.195 (≈ 0.442 µM) | 0.013 (≈ 0.0294 µM) | 0.195 (≈ 0.442 µM) | 12.5 (≈ 28.3 µM) | – | – |
| C[C@@H](O)[C@H]1C(=O)N2C(C(=O)O)=C(S[C@@H]3CN[C@H](C(=O)N4C[C@H](OC(N)=O)[C@@H](OC(N)=O)C4)C3)[C@H](C)[C@H]12 | 0.391 (≈ 0.741 µM) | 0.049 (≈ 0.0929 µM) | 0.781 (≈ 1.48 µM) | 0.025 (≈ 0.0474 µM) | 0.025 (≈ 0.0474 µM) | 0.195 (≈ 0.37 µM) | 0.049 (≈ 0.0929 µM) | 0.025 (≈ 0.0474 µM) | 0.025 (≈ 0.0474 µM) | 6.25 (≈ 11.8 µM) | 53 | – |
| CC(=O)O[C@@H]1CN(C(=O)[C@@H]2C[C@H](SC3=C(C(=O)O)N4C(=O)[C@H]([C@@H](C)O)[C@H]4[C@H]3C)CN2)C[C@H]1OC(C)=O | 0.098 (≈ 0.186 µM) | 0.049 (≈ 0.0932 µM) | 0.098 (≈ 0.186 µM) | 0.013 (≈ 0.0247 µM) | 0.025 (≈ 0.0476 µM) | 0.195 (≈ 0.371 µM) | 0.049 (≈ 0.0932 µM) | 0.007 (≈ 0.0133 µM) | 0.013 (≈ 0.0247 µM) | 6.25 (≈ 11.9 µM) | 50 | – |
| C[C@@H](O)[C@H]1C(=O)N2C(C(=O)O)=C(S[C@H]3CN[C@H](C(=O)N4C[C@H](O)[C@@H](O)C4)C3)[C@H](C)[C@H]12 | 0.781 (≈ 1.77 µM) | 0.195 (≈ 0.442 µM) | 100 (≈ 226 µM) | 0.098 (≈ 0.222 µM) | 0.098 (≈ 0.222 µM) | 0.195 (≈ 0.442 µM) | 0.195 (≈ 0.442 µM) | 0.025 (≈ 0.0566 µM) | 0.195 (≈ 0.442 µM) | 25 (≈ 56.6 µM) | – | – |
| CC(=O)O[C@H]1CN(C(=O)[C@@H]2C[C@H](SC3=C(C(=O)O)N4C(=O)[C@H]([C@@H](C)O)[C@H]4[C@H]3C)CN2)C[C@@H]1OC(C)=O (stereo in doubt; 1a) [listing 1 of 2 here] | 0.098 (≈ 0.186 µM) | 0.049 (≈ 0.0932 µM) | – | 0.013 (≈ 0.0247 µM) | 0.025 (≈ 0.0476 µM) | 0.098 (≈ 0.186 µM) | 0.049 (≈ 0.0932 µM) | 0.007 (≈ 0.0133 µM) | 0.013 (≈ 0.0247 µM) | 6.25 (≈ 11.9 µM) | – | MIC [3]: 0.195 µg/mL (≈ 0.371 µM); half-life [12]: 15 min; ED50 [13]: 2.18 mg/kg; ED50 [14]: 3.93 mg/kg; ED50 [15]: 4.79 mg/kg; Tmax [16]: 10.2 min; AUC [17]: 6830 ng·h/mL; ED50 [18]: 0.94 mg/kg; Cmax [19]: 16600 ng/mL |
| CC(=O)O[C@H]1CN(C(=O)[C@@H]2C[C@H](SC3=C(C(=O)O)N4C(=O)[C@H]([C@@H](C)O)[C@H]4[C@H]3C)CN2)C[C@@H]1OC(C)=O (stereo in doubt; 1a) [listing 2 of 2 here] | – | – | – | – | – | – | – | – | – | – | 63 | – |
| CC(=O)O[C@H]1CN(C(=O)[C@@H]2C[C@H](SC3=C(C(=O)O)N4C(=O)[C@H]([C@@H](C)O)[C@H]4[C@H]3C)CN2)C[C@@H]1OC(C)=O (stereo in doubt; 1f) [listing 1 of 2 here] | – | – | – | – | – | – | – | – | – | – | – | MIC [1]: 0.195 µg/mL (≈ 0.371 µM); MIC [2]: 0.049 µg/mL (≈ 0.0932 µM); MIC [3]: 1.563 µg/mL (≈ 2.97 µM); MIC [4]: 0.025 µg/mL (≈ 0.0476 µM); MIC [6]: 0.195 µg/mL (≈ 0.371 µM); MIC [7]: 0.049 µg/mL (≈ 0.0932 µM); MIC [8]: 0.007 µg/mL (≈ 0.0133 µM); MIC [9]: 0.013 µg/mL (≈ 0.0247 µM); MIC [10]: 6.25 µg/mL (≈ 11.9 µM) |
| CC(=O)O[C@H]1CN(C(=O)[C@@H]2C[C@H](SC3=C(C(=O)O)N4C(=O)[C@H]([C@@H](C)O)[C@H]4[C@H]3C)CN2)C[C@@H]1OC(C)=O (stereo in doubt; 1f) [listing 2 of 2 here] | – | – | – | – | – | – | – | – | – | – | 66 | – |
| C[C@@H](O)[C@H]1C(=O)N2C(C(=O)O)=C(SCCNC=N)C[C@H]12 [IMIPENEM ANHYDROUS] | 0.195 (≈ 0.651 µM) | 0.781 (≈ 2.61 µM) | 0.781 (≈ 2.61 µM) | 0.098 (≈ 0.327 µM) | 0.195 (≈ 0.651 µM) | 0.013 (≈ 0.0434 µM) | 0.391 (≈ 1.31 µM) | 0.004 (≈ 0.0134 µM) | 0.195 (≈ 0.651 µM) | 1.56 (≈ 5.22 µM) | 19 | – |
| C[C@@H](O)[C@H]1C(=O)N2C(C(=O)O)=C(S[C@@H]3CN[C@H](C(=O)N(C)C)C3)[C@H](C)[C@H]12 [MEROPENEM] | 0.049 (≈ 0.128 µM) | 0.025 (≈ 0.0652 µM) | 0.195 (≈ 0.509 µM) | 0.013 (≈ 0.0339 µM) | 0.025 (≈ 0.0652 µM) | 0.098 (≈ 0.256 µM) | 0.049 (≈ 0.128 µM) | 0.002 (≈ 0.00522 µM) | 0.025 (≈ 0.0652 µM) | 12.5 (≈ 32.6 µM) | 100 | half-life [12]: 16.2 min; ED50 [13]: 11.1 mg/kg; ED50 [14]: 4.26 mg/kg; ED50 [15]: 4.55 mg/kg; Tmax [16]: 10.2 min; AUC [17]: 6860 ng·h/mL; ED50 [18]: 0.65 mg/kg; Cmax [19]: 15600 ng/mL |
